Reference: ChEMBL document CHEMBL3621041, “Optimization of a Novel Binding Motif to (E)-3-(3,5-Difluoro-4-((1R,3R)-2-(2-fluoro-2-methylpropyl)-3-methyl-2,3,4,9-tetrahydro-1H-pyrido[3,4-b]indol-1-yl)phenyl)acrylic Acid (AZD9496), a Potent and Orally Bioavailable Selective Estrogen Receptor Downregulator and Antagonist” (J Med Chem, 2015)
In brackets after ≈: the same amount, converted by molar mass. Activity calls are given as the source filed them. The rule behind the calls is not given here.

What was measured:
[1] = target: T1, Progesterone receptor (Homo sapiens, UniProt P06401); test: Agonist activity at progesterone receptor in human MCF7 cells; format: cell-based
T1 sequence (P06401 whole entry): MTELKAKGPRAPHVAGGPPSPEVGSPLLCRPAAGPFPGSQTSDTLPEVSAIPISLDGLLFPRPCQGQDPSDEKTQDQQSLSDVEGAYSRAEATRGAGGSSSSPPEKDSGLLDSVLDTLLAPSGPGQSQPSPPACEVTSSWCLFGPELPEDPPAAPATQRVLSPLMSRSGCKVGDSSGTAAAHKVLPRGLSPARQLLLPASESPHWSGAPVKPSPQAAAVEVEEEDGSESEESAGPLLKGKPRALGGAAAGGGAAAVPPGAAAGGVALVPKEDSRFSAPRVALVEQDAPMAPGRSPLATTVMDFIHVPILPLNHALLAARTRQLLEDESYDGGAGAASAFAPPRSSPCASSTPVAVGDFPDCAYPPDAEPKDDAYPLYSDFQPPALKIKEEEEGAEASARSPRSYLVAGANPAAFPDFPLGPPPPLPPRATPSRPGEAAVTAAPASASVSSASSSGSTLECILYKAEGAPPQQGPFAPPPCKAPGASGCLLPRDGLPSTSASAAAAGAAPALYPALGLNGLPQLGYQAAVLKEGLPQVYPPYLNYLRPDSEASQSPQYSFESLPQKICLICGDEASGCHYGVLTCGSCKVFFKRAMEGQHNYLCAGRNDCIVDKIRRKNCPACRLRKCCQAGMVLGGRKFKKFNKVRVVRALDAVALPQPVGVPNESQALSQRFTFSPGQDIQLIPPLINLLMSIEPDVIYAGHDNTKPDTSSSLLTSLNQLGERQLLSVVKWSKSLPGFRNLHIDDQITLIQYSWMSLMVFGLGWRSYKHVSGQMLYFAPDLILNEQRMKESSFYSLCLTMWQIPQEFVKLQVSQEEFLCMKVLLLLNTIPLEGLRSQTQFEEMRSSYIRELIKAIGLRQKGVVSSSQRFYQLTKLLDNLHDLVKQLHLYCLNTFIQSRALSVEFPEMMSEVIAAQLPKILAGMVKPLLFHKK

[2] = Lipophilicity, log D of the compound at pH 7.4; format: physicochemical; conditions: buffer
[3] = Thermodynamic solubility of the compound in 0.1 M phosphate buffer at pH 7.4 after 24 hrs; format: physicochemical; conditions: read-out: Therm_solubility
[4] = Fraction unbound in Han Wistar rat 10% plasma by equilibrium dialysis; format: ADME, cell-free
[5] = Intrinsic clearance in rat cryopreserved hepatocytes assessed per 10^6 cells; format: ADME, cell-based, Hepatocyte; conditions: read-out: CLH
[6] = Intrinsic clearance in human cryopreserved hepatocytes assessed per 10^6 cells; format: ADME, cell-based, Hepatocyte; conditions: read-out: CLH
[7] = target: T2, Androgen receptor (Homo sapiens, UniProt P10275); test: Binding affinity to androgen receptor (unknown origin)
T2 sequence (P10275 whole entry): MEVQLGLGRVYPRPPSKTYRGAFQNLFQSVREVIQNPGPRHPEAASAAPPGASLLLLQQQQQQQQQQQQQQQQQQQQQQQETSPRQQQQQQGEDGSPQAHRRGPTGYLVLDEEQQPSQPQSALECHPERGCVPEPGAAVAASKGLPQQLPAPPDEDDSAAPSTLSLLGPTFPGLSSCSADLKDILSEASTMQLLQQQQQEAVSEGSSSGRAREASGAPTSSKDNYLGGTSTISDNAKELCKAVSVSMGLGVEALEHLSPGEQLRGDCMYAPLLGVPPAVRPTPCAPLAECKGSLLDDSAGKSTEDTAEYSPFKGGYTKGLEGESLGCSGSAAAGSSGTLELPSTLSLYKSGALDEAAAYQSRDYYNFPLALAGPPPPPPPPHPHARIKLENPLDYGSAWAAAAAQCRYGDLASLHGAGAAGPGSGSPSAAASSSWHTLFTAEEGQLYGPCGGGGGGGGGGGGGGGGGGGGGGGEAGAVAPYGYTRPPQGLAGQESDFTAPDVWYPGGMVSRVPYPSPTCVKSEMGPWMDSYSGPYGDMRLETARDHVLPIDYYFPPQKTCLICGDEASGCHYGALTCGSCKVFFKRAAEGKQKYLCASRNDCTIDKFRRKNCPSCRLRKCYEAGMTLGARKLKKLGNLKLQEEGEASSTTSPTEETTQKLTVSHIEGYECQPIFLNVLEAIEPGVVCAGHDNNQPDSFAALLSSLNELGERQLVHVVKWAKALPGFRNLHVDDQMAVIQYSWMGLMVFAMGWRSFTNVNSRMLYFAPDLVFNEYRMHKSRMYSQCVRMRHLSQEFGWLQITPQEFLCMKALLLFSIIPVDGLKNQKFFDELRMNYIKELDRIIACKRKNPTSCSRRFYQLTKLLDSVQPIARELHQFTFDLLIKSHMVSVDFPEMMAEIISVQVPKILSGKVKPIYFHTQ

[8] = target: T1, Progesterone receptor; test: Binding affinity to progesterone receptor (unknown origin)
[9] = target: T3, Glucocorticoid receptor (Homo sapiens, UniProt P04150); test: Binding affinity to glucocorticoid receptor (unknown origin)
T3 sequence (P04150 whole entry): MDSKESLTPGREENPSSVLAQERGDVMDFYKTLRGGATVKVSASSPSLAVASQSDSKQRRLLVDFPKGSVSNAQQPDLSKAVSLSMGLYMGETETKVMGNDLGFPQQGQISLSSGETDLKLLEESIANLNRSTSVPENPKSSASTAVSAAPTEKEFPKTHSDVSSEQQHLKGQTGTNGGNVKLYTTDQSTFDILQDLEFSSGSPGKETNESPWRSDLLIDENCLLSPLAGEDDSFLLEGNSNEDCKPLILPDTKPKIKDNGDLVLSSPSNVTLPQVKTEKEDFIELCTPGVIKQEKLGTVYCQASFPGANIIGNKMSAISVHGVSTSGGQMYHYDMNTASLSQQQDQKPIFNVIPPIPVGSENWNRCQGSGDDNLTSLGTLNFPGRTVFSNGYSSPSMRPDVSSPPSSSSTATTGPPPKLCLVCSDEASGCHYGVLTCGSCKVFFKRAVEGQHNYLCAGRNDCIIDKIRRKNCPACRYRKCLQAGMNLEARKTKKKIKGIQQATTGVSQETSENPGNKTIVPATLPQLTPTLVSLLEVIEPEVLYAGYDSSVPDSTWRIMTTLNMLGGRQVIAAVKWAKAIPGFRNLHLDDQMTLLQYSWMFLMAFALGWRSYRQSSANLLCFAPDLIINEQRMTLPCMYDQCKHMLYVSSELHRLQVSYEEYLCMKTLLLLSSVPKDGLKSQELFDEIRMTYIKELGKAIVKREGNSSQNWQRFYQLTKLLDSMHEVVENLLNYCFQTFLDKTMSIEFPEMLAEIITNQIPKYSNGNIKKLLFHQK

[10] = target: T4, Estrogen receptor (Homo sapiens, UniProt P03372)
T4 sequence (P03372 whole entry): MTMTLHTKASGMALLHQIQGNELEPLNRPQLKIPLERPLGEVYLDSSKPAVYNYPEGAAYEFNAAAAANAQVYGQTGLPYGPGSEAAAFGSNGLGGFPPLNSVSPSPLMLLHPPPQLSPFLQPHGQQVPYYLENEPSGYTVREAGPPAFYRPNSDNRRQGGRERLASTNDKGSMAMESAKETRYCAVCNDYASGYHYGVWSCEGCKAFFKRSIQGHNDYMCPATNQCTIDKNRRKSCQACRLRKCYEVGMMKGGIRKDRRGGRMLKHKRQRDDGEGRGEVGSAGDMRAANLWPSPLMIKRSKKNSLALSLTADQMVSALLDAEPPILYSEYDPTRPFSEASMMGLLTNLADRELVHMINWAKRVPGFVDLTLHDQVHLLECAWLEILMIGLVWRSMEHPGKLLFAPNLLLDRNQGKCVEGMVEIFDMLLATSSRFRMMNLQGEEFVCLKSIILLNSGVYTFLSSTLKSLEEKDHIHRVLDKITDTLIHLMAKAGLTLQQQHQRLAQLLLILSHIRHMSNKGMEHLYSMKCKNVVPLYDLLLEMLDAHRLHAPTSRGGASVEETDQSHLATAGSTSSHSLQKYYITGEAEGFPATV
Description: Binding affinity to ERalpha receptor (unknown origin)

[11] = target: T4, Estrogen receptor; remark: listed apart in the source
Description: Antagonist activity at ERalpha receptor in human MCF7 cells

[12] = Fraction unbound in human 10% plasma by equilibrium dialysis; format: ADME, cell-free
[13] = Volume of distribution at steady state in Alderley Park beagle dog at 2.5 umol/kg, iv and 5 umol/kg, po; format: ADME, organism-based, Canis lupus familiaris; conditions: in vivo, read-out: Vdss
[14] = Clearance in Alderley Park beagle dog at 2.5 umol/kg, iv and 5 umol/kg, po; format: ADME, organism-based, Canis lupus familiaris; conditions: in vivo
[15] = Oral bioavailability in Alderley Park beagle dog at 5 umol/kg; format: ADME, organism-based, Canis lupus familiaris; conditions: in vivo
[16] = Volume of distribution at steady state in Han Wistar rat at 2.2 umol/kg, iv and 4.5 umol/kg, po; format: ADME, organism-based; conditions: in vivo, read-out: Vdss
[17] = Clearance in Han Wistar rat at 2.2 umol/kg, iv and […] umol/kg, po; format: ADME, organism-based; conditions: in vivo
[18] = Oral bioavailability in Han Wistar rat at 4.5 umol/kg; format: ADME, organism-based; conditions: in vivo
[19] = Volume of distribution at steady state in SCID mouse at 2.3 umol/kg, iv and 5.6 umol/kg, po; format: ADME, organism-based; conditions: in vivo, read-out: Vdss
[20] = Clearance in SCID mouse at 2.3 umol/kg, iv and 5.6 umol/kg, po; format: ADME, organism-based; conditions: in vivo
[21] = Oral bioavailability in SCID mouse at 5.6 umol/kg; format: ADME, organism-based; conditions: in vivo
[22] = system: MCF7; test: Antitumor activity against human MCF7 cells xenografted in mouse assessed as tumor growth inhibition administered orally daily once; format: functional
[23] = system: MCF7; test: Antitumor activity against human MCF7 cells xenografted in mouse assessed as tumor regression at 5 mg/kg, po qd; format: functional, organism-based
[24] = system: MCF7; test: cells; conditions: Homo sapiens, MCF7, read-out: pIC50 (converted)
Description: Antiproliferative activity against human MCF7 cells

[25] = Volume of distribution at steady state in Han Wistar rat at 5 umol/kg, iv and 13 umol/kg, po; format: ADME, organism-based; conditions: in vivo, read-out: Vdss
[26] = Clearance in Han Wistar rat at 5 umol/kg, iv and 13 umol/kg, po; format: ADME, organism-based; conditions: in vivo
[27] = Oral bioavailability in Han Wistar rat at 13 umol/kg; format: ADME, organism-based; conditions: in vivo
[28] = Volume of distribution at steady state in CD1 mouse at 5 umol/kg, iv and 13 umol/kg, po; format: ADME, organism-based; conditions: in vivo, read-out: Vdss
[29] = Clearance in CD1 mouse at 5 umol/kg, iv and 13 umol/kg, po; format: ADME, organism-based; conditions: in vivo
[30] = Oral bioavailability in CD1 mouse at 13 umol/kg; format: ADME, organism-based; conditions: in vivo

SMILES	IC50 [1] [nM]	logD [2]	solubility thermodynamic at 24 h [3] [µM]	fraction unbound [4]	hepatocyte CLint [5] [µL/min/1e6 cells]	hepatocyte CLint [6] [µL/min/1e6 cells]	IC50 [10] [nM]	IC50 [11] [nM]	fraction unbound [12]	Vd [13] [L/kg]	clearance [14] [mL/min/kg]	bioavailability [15] [%]	IC50 [24] [nM]	also measured
OCCN1CCc2c([nH]c3ccccc23)C1c1ccc(Cl)cc1 (racemic)	> 100000	3.7	15 (≈ 4.9 µg/mL)	0.045	300	70	2040	1170						IC50 ([7]; read-out: pIC50 (converted)): > 31600 nM; IC50 [8]: > 31600 nM; IC50 ([9]; read-out: pIC50 (converted)): > 31600 nM
C[C@@H]1Cc2c([nH]c3ccccc23)[C@@H](c2c(F)cc(/C=C/C(=O)O)cc2F)N1CC(C)(C)F [AZD-9496]		2.8	110 (≈ 48.7 µg/mL)	0.0037	4.2	32			0.0026	2.2	0.28	79	0.0398	IC50 ([7]; read-out: IC50): 30000 nM; IC50 ([9]; read-out: IC50): 9200 nM; Vd [16]: 0.43 L/kg; clearance [17]: 1 mL/min/kg; bioavailability [18]: 63%; Vd [19]: 2.2 L/kg; clearance [20]: 43 mL/min/kg; bioavailability [21]: 128%; growth inhibition (GI) [22]: Dose-dependent effect; Activity [23]: Active
CC(C)CN1[C@H](c2ccc(/C=C/C(=O)O)cc2)c2[nH]c3ccccc3c2C[C@H]1C	> 100000	2.6	> 1000	0.0069	18	40	6.46	2.09	0.0051	0.3	0.96	111	0.776	Vd [25]: 1.1 L/kg; clearance [26]: 6.2 mL/min/kg; bioavailability [27]: 80%; Vd [28]: 3.7 L/kg; clearance [29]: 21 mL/min/kg; bioavailability [30]: 86%
